Data published in ChEMBL document CHEMBL4043199, “Synthesis and optimization of 4,5,6,7-tetrahydrooxazolo[4,5-c]pyridines as potent and orally-active metabotropic glutamate receptor 5 negative allosteric modulators” (Bioorg Med Chem Lett, 2017).
In brackets after ≈: the same amount, converted by molar mass. Blank lines part the entries; values can stand above or below the compound they belong to.

Key:
[1] = Metabolic stability in human hepatic microsomes assessed as parent compound remaining at 1 uM after 30 mins in presence of NADPH by LC-MS/MS analysis relative to control; assay type: ADME, Microsome; details: liver microsomes, read-out: Stability
[2] = Metabolic stability in rat hepatic microsomes assessed as parent compound remaining at 1 uM after 30 mins in presence of NADPH by LC-MS/MS analysis relative to control; assay type: ADME, Microsome; details: liver microsomes, read-out: Stability
[3] = target: Metabotropic glutamate receptor 5 (Homo sapiens, UniProt P41594); assay: Negative allosteric modulation of human recombinant mGluR5 expressed in HEK293 cells assessed as inhibition of glutamate-induced calcium mobilization preincubated for 2 mins followed glutamate addition measured by fluorescence assay; assay type: functional, cell-based
Chain of Metabotropic glutamate receptor 5 (P41594 whole entry): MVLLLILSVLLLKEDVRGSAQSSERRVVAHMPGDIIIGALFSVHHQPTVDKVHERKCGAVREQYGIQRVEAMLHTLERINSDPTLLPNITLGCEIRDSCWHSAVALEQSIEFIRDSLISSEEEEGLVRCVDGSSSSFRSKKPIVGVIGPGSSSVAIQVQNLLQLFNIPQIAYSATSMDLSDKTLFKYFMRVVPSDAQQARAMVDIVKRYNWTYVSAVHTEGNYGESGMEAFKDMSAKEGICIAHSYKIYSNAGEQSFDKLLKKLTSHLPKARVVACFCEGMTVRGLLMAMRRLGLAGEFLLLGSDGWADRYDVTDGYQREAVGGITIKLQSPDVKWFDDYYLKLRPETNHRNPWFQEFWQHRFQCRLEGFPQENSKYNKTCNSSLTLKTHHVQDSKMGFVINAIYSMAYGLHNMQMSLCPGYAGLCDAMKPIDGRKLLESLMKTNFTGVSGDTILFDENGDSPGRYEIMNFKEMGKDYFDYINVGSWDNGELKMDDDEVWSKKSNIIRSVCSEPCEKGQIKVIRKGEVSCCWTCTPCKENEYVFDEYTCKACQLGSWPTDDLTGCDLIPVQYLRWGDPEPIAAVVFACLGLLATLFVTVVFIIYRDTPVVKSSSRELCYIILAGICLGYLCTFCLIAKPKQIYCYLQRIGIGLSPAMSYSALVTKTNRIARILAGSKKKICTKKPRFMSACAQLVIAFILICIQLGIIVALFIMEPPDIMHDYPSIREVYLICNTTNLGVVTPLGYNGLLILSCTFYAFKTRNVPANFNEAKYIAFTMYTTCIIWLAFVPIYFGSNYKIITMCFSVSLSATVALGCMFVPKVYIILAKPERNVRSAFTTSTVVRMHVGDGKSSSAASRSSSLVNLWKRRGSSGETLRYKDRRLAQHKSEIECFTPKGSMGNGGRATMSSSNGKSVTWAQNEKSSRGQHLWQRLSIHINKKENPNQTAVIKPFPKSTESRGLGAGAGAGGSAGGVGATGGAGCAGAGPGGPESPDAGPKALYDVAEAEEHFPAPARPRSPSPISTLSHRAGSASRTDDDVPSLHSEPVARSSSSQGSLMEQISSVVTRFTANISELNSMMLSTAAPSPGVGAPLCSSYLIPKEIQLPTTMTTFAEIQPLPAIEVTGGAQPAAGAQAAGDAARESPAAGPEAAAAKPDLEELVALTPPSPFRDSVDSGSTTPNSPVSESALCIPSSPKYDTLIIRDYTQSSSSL

[4] = Aqueous solubility of compound at pH 7.4; assay type: physicochemical; details: aqueous medium
[5] = target: CYP3A4 (Homo sapiens, UniProt P08684); assay: (§1) Inhibition of CYP3A4 in human liver microsomes using midazolam as substrate after 10 mins by LC-MS/MS analysis; assay type: ADME; details: human, liver microsomes, probe midazolam
Chain of CYP3A4 (P08684 whole entry): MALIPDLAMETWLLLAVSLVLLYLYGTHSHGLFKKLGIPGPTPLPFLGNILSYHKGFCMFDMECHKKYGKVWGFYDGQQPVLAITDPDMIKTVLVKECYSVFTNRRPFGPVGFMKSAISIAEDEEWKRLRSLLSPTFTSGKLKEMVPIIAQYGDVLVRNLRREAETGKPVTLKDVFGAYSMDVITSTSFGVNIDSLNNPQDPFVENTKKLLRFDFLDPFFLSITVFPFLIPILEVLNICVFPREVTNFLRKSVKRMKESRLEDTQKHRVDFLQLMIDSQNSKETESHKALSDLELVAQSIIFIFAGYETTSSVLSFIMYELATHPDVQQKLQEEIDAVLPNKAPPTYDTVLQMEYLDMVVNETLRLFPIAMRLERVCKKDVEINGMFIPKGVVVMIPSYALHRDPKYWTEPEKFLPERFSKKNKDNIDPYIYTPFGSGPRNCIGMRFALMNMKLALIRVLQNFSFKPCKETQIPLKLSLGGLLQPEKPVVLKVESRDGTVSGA

[6] = target: CYP2D6 (Homo sapiens, UniProt P10635); assay: (§2) Inhibition of CYP2D6 in human liver microsomes using bufuralol as substrate after 10 mins by LC-MS/MS analysis; assay type: ADME; details: human, liver microsomes, probe bufuralol
Chain of CYP2D6 (P10635 whole entry): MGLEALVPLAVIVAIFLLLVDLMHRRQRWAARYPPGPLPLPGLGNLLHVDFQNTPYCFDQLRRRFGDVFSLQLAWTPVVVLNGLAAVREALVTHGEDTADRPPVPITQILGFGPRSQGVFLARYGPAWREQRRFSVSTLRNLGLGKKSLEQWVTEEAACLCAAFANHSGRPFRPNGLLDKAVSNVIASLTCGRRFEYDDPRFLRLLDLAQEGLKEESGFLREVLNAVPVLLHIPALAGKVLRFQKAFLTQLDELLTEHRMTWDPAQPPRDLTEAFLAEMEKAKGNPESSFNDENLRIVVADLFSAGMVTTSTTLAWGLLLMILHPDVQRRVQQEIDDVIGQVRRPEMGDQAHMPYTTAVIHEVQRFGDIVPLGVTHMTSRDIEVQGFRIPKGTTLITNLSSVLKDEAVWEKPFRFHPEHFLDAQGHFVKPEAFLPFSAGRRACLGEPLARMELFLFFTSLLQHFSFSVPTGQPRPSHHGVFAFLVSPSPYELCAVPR

[7] = target: T1, CYP1A2 (Homo sapiens, UniProt P05177); assay: (§3) Inhibition of CYP1A2 in human liver microsomes using phenacetin as substrate after 10 mins by LC-MS/MS analysis; assay type: ADME; details: human, liver microsomes, probe phenacetin
T1 sequence (P05177 whole entry): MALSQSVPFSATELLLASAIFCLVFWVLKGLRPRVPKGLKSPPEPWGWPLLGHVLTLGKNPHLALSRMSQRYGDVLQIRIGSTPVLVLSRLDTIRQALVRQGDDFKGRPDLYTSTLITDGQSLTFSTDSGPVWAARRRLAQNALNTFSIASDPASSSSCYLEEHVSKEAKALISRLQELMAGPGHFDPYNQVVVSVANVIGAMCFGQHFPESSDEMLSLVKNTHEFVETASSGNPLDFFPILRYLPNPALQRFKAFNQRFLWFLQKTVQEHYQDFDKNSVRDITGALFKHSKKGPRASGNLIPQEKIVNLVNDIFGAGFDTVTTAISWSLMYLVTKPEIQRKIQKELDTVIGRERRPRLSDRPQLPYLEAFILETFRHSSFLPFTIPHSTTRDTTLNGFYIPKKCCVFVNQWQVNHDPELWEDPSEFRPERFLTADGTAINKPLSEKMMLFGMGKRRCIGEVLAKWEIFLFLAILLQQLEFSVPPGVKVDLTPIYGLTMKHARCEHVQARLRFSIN

[8] = target: T2, CYP2C8 (Homo sapiens, UniProt P10632); assay: (§4) Inhibition of CYP2C8 in human liver microsomes using amodiaquine as substrate after 10 mins by LC-MS/MS analysis; assay type: ADME; details: human, liver microsomes, probe amodiaquine
T2 sequence (P10632 whole entry): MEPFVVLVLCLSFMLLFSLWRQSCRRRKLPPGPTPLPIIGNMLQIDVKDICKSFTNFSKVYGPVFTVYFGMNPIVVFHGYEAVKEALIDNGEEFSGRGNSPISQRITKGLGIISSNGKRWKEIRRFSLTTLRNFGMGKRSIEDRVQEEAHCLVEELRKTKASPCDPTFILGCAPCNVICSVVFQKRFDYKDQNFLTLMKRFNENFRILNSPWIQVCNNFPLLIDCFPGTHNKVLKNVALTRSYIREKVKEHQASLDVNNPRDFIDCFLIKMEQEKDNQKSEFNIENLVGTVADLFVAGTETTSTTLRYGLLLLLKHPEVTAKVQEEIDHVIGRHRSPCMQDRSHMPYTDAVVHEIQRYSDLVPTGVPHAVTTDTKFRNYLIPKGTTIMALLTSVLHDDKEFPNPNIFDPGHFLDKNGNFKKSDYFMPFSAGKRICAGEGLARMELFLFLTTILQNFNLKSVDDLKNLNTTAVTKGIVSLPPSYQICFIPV

[9] = target: CYP2C9 (Homo sapiens, UniProt P11712); assay: (§5) Inhibition of CYP2C9 in human liver microsomes using diclofenac as substrate after 10 mins by LC-MS/MS analysis; assay type: ADME; details: human, liver microsomes, probe diclofenac
Chain of CYP2C9 (P11712 whole entry): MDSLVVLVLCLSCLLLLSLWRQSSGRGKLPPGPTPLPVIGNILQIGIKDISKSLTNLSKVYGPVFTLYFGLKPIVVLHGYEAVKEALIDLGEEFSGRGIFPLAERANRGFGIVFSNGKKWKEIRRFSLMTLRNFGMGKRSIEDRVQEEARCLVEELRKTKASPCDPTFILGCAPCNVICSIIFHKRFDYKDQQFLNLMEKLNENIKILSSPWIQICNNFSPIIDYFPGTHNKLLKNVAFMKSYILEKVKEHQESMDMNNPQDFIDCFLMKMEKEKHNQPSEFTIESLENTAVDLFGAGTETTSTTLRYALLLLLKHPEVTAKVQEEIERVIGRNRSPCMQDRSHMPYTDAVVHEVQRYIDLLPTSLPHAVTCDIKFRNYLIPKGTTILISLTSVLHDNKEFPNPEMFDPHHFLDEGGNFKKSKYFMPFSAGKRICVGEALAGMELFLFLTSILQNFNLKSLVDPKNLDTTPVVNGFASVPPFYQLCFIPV

[10] = target: CYP2C19 (Homo sapiens, UniProt P33261); assay: (§6) Inhibition of CYP2C19 in human liver microsomes using (S)-mephenytoin as substrate after 10 mins by LC-MS/MS analysis; assay type: ADME; details: human, liver microsomes, probe (S)-mephenytoin
Chain of CYP2C19 (P33261 whole entry): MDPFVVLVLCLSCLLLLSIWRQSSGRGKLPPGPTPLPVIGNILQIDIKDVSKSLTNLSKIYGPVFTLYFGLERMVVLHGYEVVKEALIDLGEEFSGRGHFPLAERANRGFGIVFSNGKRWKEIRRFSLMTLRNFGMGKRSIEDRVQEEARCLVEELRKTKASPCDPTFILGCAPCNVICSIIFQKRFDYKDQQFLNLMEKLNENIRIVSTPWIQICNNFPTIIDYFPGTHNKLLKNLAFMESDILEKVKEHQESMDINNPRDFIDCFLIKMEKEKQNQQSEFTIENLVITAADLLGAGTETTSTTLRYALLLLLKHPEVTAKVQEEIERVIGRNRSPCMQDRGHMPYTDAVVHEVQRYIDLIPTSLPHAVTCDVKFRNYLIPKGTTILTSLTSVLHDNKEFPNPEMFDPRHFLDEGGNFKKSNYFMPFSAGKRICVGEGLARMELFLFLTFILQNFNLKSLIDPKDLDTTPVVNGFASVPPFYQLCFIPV

[11] = […] of CYP450 in human liver microsomes as substrate after 10 mins by LC-MS/MS analysis; assay type: ADME
[12] = tested on: P-gp; assay: Substrate activity at P-gp (unknown origin) assessed as efflux ratio; assay type: ADME; details: human, not told
[13] = target: T3, CYP2A6 (Homo sapiens, UniProt P11509); assay: (§7) Inhibition of CYP2A6 in human liver microsomes using coumarin as substrate after 10 mins by LC-MS/MS analysis; assay type: ADME; details: human, liver microsomes, probe coumarin
T3 sequence (P11509 whole entry): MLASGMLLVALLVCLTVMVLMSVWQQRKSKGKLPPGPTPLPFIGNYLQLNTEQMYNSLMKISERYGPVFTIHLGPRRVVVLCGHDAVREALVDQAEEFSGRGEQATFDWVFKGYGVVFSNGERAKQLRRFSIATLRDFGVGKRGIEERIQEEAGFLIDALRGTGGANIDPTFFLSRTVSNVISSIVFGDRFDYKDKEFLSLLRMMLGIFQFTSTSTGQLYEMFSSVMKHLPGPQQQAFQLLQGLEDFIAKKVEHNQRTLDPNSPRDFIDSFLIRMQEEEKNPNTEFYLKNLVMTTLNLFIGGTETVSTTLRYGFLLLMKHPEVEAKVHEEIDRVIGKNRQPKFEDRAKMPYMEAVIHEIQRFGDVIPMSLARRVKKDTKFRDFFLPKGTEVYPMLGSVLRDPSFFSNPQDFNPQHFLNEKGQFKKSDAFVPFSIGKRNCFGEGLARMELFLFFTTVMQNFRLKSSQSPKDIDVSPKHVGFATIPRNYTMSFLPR

[14] = tested on: Rattus norvegicus; assay: Ex vivo receptor occupancy at mGluR5 in Sprague-Dawley rat brain po administered daily for 4 days in presence of [3H]-MPEPy by liquid scintillation counting method; assay type: functional, organism-based
[15] = target: Cytochrome P450 3A4 (Homo sapiens, UniProt P08684); assay: as §1; assay type: ADME
Chain of Cytochrome P450 3A4 (P08684 whole entry): as the sequence (P08684 whole entry) above

[16] = Half life in rat at 1 mg/kg, iv; assay type: ADME, organism-based; details: in vivo
[17] = target: Cytochrome P450 2D6 (Homo sapiens, UniProt P10635); assay: as §2; assay type: ADME
Chain of Cytochrome P450 2D6 (P10635 whole entry): as the sequence (P10635 whole entry) above

[18] = AUC in monkey at 0.5 mg/kg, iv; assay type: ADME, organism-based, Macaca mulatta; details: rhesus monkey, in vivo
[19] = Permeability of the compound at pH 7.4 by PAMPA; assay type: physicochemical; details: read-out: permeability
[20] = tested on: Salmonella typhimurium; assay: Genotoxicity in Salmonella typhimurium by Ames test; assay type: toxicity; details: salmonella enterica subsp. enterica serovar typhimurium
[21] = Cmax in monkey at 10 mg/kg, po; assay type: ADME, organism-based, Macaca mulatta; design: dose 10 mg/kg, route oral; details: rhesus monkey, in vivo
[22] = tested on: Rattus norvegicus; assay: Toxicity in rat at 100 mg/kg, po qd administered via gavage for 14 days; assay type: organism-based; details: in vivo, 336 h
[23] = target: T4, Cytochrome P450 1A2 (Homo sapiens, UniProt P05177); assay: as §3; assay type: ADME
T4 sequence (P05177 whole entry): T1 sequence (P05177 whole entry)

[24] = Volume of distribution at steady state in monkey at 0.5 mg/kg, iv after 24 hrs; assay type: ADME, organism-based, Macaca mulatta; details: rhesus monkey, in vivo, read-out: Vdss
[25] = target: T5, Cytochrome P450 2C8 (Homo sapiens, UniProt P10632); assay: as §4; assay type: ADME
T5 sequence (P10632 whole entry): T2 sequence (P10632 whole entry)

[26] = target: Cytochrome P450 2C9 (Homo sapiens, UniProt P11712); assay: as §5; assay type: ADME
Chain of Cytochrome P450 2C9 (P11712 whole entry): as the sequence (P11712 whole entry) above

[27] = AUC in rat at 10 mg/kg, po; assay type: ADME, organism-based; details: in vivo
[28] = Volume of distribution at steady state in rat at 1 mg/kg, iv after 24 hrs; assay type: ADME, organism-based; details: in vivo, read-out: Vdss
[29] = Half life in monkey at 0.5 mg/kg, iv; assay type: ADME, organism-based, Macaca mulatta; details: rhesus monkey, in vivo
[30] = Oral bioavailability in monkey at 10 mg/kg; assay type: ADME, organism-based, Macaca mulatta; details: rhesus monkey, in vivo
[31] = target: Cytochrome P450 2C19 (Homo sapiens, UniProt P33261); assay: as §6; assay type: ADME
Chain of Cytochrome P450 2C19 (P33261 whole entry): as the sequence (P33261 whole entry) above

[32] = tested on: Rattus norvegicus; assay: Oral bioavailability in rat at 10 mg/kg; assay type: ADME, organism-based; details: in vivo
[33] = Clearance in monkey at 0.5 mg/kg, iv after 24 hrs; assay type: ADME, organism-based, Macaca mulatta; details: rhesus monkey, in vivo
[34] = AUC in monkey at 10 mg/kg, po; assay type: ADME, organism-based, Macaca mulatta; details: rhesus monkey, in vivo
[35] = AUC in rat at 1 mg/kg, iv; assay type: ADME, organism-based; details: in vivo
[36] = Cmax in rat at 10 mg/kg, po; assay type: ADME, organism-based; design: dose 10 mg/kg, route oral; details: in vivo
[37] = target: T6, Cytochrome P450 2A6 (Homo sapiens, UniProt P11509); assay: as §7; assay type: ADME
T6 sequence (P11509 whole entry): T3 sequence (P11509 whole entry)

[38] = Clearance in rat at 1 mg/kg, iv after 24 hrs; assay type: ADME, organism-based; details: in vivo

- remaining at 0.5 h, 1 µM [1]: > 91%
- remaining at 0.5 h, 1 µM [2]: > 91%
- IC50 [3]: 0.05 µM
Structure (SMILES): O=C(c1cccc(Cl)c1)N1CCc2oc(-c3ccc(F)cn3)nc2C1

- solubility [4]: 4 µg/mL (≈ 10.7 µM)
- IC50 at 10 min [5]: > 40 µM
- remaining at 0.5 h, 1 µM [1]: > 97%
- IC50 at 10 min [6]: > 40 µM
- remaining at 0.5 h, 1 µM [2]: > 97%
- IC50 at 10 min [7]: > 40 µM
- IC50 at 10 min [8]: > 40 µM
- IC50 at 10 min [9]: > 40 µM
- IC50 at 10 min [10]: > 40 µM
- Activity [11]: Not Active
- efflux ratio [12]: 1.2
- IC50 at 10 min [13]: > 40 µM
Structure (SMILES): O=C(c1cc(F)cc(Cl)c1)N1CCn2nc(-c3ccc(F)cn3)cc2C1

- Activity [14]: Dose-dependent effect
- solubility [4]: 23 µg/mL (≈ 67.4 µM)
- IC50 [15]: > 50 µM
- remaining at 0.5 h, 1 µM [1]: 91 to 97%
- half-life [16]: 2 h
- IC50 [17]: > 50 µM
- AUC [18]: 3050 ng·h/mL
- Papp [19]: 31.7 ×10⁻⁶ cm/s
- remaining at 0.5 h, 1 µM [2]: 91 to 97%
- Cmax [21]: 4060 ng/mL
- IC50 [23]: > 50 µM
- Vd [24]: 2.2 L/kg
- IC50 [25]: > 50 µM
- IC50 [3]: 0.063 µM
- IC50 [26]: > 50 µM
- AUC [27]: 26100 ng·h/mL
- Vd [28]: 1.6 L/kg
- half-life [29]: 9.5 h
- bioavailability [30]: 114%
- IC50 [31]: > 50 µM
- Activity [11]: Not Active
- F [32]: 168%
- clearance [33]: 2.8 mL/min/kg
- AUC [34]: 69200 ng·h/mL
- AUC [35]: 1550 ng·h/mL
- Cmax [36]: 2070 ng/mL
- IC50 [37]: > 50 µM
- clearance [38]: 10.8 mL/min/kg
Structure (SMILES): O=C(c1cccc(F)c1)N1CCc2oc(-c3ccc(F)cn3)nc2C1
- Activity [20]: Non-Toxic
- Activity [22]: Non-Toxic

- remaining at 0.5 h, 1 µM [1]: > 91%
- remaining at 0.5 h, 1 µM [2]: > 91%
- IC50 [3]: 0.09 µM
Structure (SMILES): O=C(c1ccc(F)cc1)N1CCc2oc(-c3ccc(F)cn3)nc2C1
